Experimental data as given in US20190330224A1, “ACC INHIBITORS AND USES THEREOF” (Gilead Apollo, LLC, priority 2015, published 2019).
Converted amounts (≈) assume the structure as drawn. Read-outs that look alike come from different tables or passages of the source.

How the values were obtained:
[1] = compound concentration 10 ppm, foliar spray, evaluated 7 days after inoculation
[2] = test system: C. albicans ATCC 90028; assay: Anti-Fungal Activity Assay (broth microtiter MIC), C. albicans; type: cell-based, Candida albicans; details: Candida albicans, ATCC90028, 48 h, 3 replicates; MIC recorded at 48 h; read-out: MIC C. albicans ATCC 90028
In short: (§1)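 MIC taken as visual growth inhibition versus the growth control, mostly at 48 h (soraphen also at 24 h). Following CLSI M27-A3, colonies grown overnight at 35° C on Sabouraud dextrose agar were suspended in RPMI 1640+MOPS; test agents came from 1 mg/mL DMSO stocks.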

[3] = test system: C. krusei ATCC 6258; assay: Anti-Fungal Activity Assay (broth microtiter MIC), C. krusei; type: cell-based, Candida krusei; details: Pichia kudriavzevii, ATCC6258, 48 h, 3 replicates; MIC recorded at 48 h; read-out: MIC C. krusei ATCC 6258
In short: as §1

[4] = test system: C. parapsilosis ATCC 22019; assay: Anti-Fungal Activity Assay (broth microtiter MIC), C. parapsilosis; type: cell-based, Candida parapsilosis; details: Lodderomyces parapsilosis, ATCC22019, 48 h, 3 replicates; MIC recorded at 48 h; read-out: MIC C. parapsilosis ATCC 22019
In short: as §1

[5] = test system: Botrtyis cinerea (Bc); assay: Growth inhibition assay of fungal pathogens, Bc; type: cell-based; details: read-out: Concentration at 90% Inhibition, Bc
Procedure: (§2) Compounds of the present invention were evaluated in a growth inhibition assay to determine the ability to control the growth of fungal pathogens, such as Botrtyis cinerea (Bc). Collectotrichum graminicola (Cg), Diplodia maydis (Dm), Fusarium moniliforme (Fm), Fusarium virguliforme (Fv), Phytophthora capsici (Pc), Rhizoctonia solani (Rs), and Septoria tritici (St). Compounds to be tested were dissolved in DMSO at 2.5 mg/ml to produce compound stock solutions (“stocks”). Stocks were diluted with DMSO by a five-fold dilution in a 96-well stock plate, and two sets of final concentrations of 50, 10, and 2 ppm or 2, 0.4, and 0.08 ppm were obtained in vitro. A set of positive controls was also prepared, with various concentrations of Soraphen (2, 0.4, and 0.08 ppm), Metalaxyl (1.1, 0.22, and 0.04 ppm), and Metconazole (2, 0.4, and 0.08 ppm or 0.2, 0.04, and 0.008 ppm) after the five-fold dilutions. Negative controls on each plate included 2% DMSO, water, and a blank (media+2% DMSO). Fungal spores were isolated from previously sub-cultured plates of Botrtyis cinerea (Bc), Collectotrichum graminicola (Cg), Diplodia maydis (Dm), Fusarium moniliforme (Fm), Fusarium virguliforme (Fv), Phytophthora capsici (Pc), and Septoria tritici (St). The isolated spores were diluted to individual concentrations with a 17% V8 liquid media. For Rhizoctonia solani (Rs) and Pythium irregulare, 1.5 mm mycelial plugs were used in place of spores and ¼ Potato Dextrose Broth (PDB) was used for dilution. The spore concentrations and plug sizes were based on growth curves generated at 48 hours for each pathogen. In a second 96-well plate, the spores or mycelial plugs, media, diluted compound solutions, and controls were combined. Once the compound was added, a true final concentration of compound in each well was measured by an OD600 reading, which adjusted for any compound precipitation that might have occurred in the well. Plate readings were repeated at both 24 and 48 hours. The blank negative control was used as a background subtraction. Additional visual ratings were performed at both 24 and 48 hours for checking on precipitation and confirming efficacy. Visual and OD600 ratings of the compounds at 48 hours were compared to the 2% DMSO negative control, and the percent of pathogen growth inhibition was determined based on those values.

[6] = test system: Collectotrichum graminicola (Cg); assay: Growth inhibition assay of fungal pathogens, Cg; type: cell-based; details: read-out: Concentration at 90% Inhibition, Cg
Procedure: as §2

[7] = test system: Diplodia maydis (Dm); assay: Growth inhibition assay of fungal pathogens, Dm; type: cell-based; details: Stenocarpella maydis, read-out: Concentration at 90% Inhibition, Dm
Procedure: as §2

[8] = test system: Fusarium moniliforme (Fm); assay: Growth inhibition assay of fungal pathogens, Fm; type: cell-based; details: Fusarium verticillioides, read-out: Concentration at 90% Inhibition, Fm
Procedure: as §2

[9] = test system: Fusarium virguliforme (Fv); assay: Growth inhibition assay of fungal pathogens, Fv; type: cell-based; details: read-out: Concentration at 90% Inhibition, Fv
Procedure: as §2

[10] = test system: Phytophthora capsici (Pc); assay: Growth inhibition assay of fungal pathogens, Pc; type: cell-based; details: read-out: Concentration at 90% Inhibition, Pc
Procedure: as §2

[11] = test system: Rhizoctonia solani (Rs); assay: Growth inhibition assay of fungal pathogens, Rs; type: cell-based; details: read-out: Concentration at 90% Inhibition, Rs
Procedure: as §2

[12] = test system: Septoria tritici (St); assay: Growth inhibition assay of fungal pathogens, St; type: cell-based; details: Zymoseptoria tritici, read-out: Concentration at 90% Inhibition, St
Procedure: as §2

[13] = test system: Blumeria graminis f sp. hordei; assay: Foliar protection test, barley powdery mildew control; type: in vivo, Blumeria graminis f sp. hordei on Hordeum vulgare cv. Perry; details: 168 h, read-out: Barley Powdery Mildew Control at 50 ppm
Procedure: Compounds of the present invention were evaluated in a foliar protection test to determine the ability to control barley powdery mildew. Plants (Hordeum vulgare cv. Perry) were grown for 6 days in 2-inch square pots containing Metromix 200 medium amended with fertilizer. For propagation, plants were maintained in a growth chamber at conditions of 20 to 21° C., 16 hour light cycle, 400 uM of light, 70% humidity, and with sub-irrigation as needed. After inoculation with the pathogen of Blumeria graminis f sp. hordei, plants were kept at conditions of 20 to 22° C., 70% relative humidity, and 200 uM of light to facilitate infection and disease development. At 6 days after planting (1st true leaf fully expanded), the test compounds were dissolved in a solution of 5% acetone and 0.005% Tween 80 surfactant. An atomizer was used for applying the solution onto both sides of the leaves until thoroughly wetted. The amount of the compound applied to the leaves was typically 200, 100, 50, 10, or 2 ppm, but it may vary. At 24 hours after treatment, the plants were moved to a cooler chamber and inoculated by shaking well-colonized, untreated stock plants above the treated plants. This allowed producing a settling cloud of spores and resulting in uniform infection. Efficacy was evaluated in 7 days later by examining leaves for colonization and growth of mildew. Table 5 lists the results of barley powdery mildew control at a compound concentration of 50 ppm or 10 ppm. Compounds having an activity designated as “AA” provided a compound having >85% control of barley powdery mildew; compounds having an activity designated as “A” provided a compound having from 70% to 84% control of barley powdery mildew; compounds having an activity designated as “B” provided a compound having from 50 to 69% control of barley powdery mildew; compounds having an activity designated as “C” provided a compound having from 25 to 49% control of barley powdery mildew; and compounds having an activity designated as “D” provided a compound having <25% control of barley powdery mildew.

[14] = biological target: Fungal ACC2 (UniProt Q00955); details: read-out: Fungal ACC2 (IC50, in vitro ACC2 inhibition)
Sequence of Fungal ACC2 (Q00955 whole entry): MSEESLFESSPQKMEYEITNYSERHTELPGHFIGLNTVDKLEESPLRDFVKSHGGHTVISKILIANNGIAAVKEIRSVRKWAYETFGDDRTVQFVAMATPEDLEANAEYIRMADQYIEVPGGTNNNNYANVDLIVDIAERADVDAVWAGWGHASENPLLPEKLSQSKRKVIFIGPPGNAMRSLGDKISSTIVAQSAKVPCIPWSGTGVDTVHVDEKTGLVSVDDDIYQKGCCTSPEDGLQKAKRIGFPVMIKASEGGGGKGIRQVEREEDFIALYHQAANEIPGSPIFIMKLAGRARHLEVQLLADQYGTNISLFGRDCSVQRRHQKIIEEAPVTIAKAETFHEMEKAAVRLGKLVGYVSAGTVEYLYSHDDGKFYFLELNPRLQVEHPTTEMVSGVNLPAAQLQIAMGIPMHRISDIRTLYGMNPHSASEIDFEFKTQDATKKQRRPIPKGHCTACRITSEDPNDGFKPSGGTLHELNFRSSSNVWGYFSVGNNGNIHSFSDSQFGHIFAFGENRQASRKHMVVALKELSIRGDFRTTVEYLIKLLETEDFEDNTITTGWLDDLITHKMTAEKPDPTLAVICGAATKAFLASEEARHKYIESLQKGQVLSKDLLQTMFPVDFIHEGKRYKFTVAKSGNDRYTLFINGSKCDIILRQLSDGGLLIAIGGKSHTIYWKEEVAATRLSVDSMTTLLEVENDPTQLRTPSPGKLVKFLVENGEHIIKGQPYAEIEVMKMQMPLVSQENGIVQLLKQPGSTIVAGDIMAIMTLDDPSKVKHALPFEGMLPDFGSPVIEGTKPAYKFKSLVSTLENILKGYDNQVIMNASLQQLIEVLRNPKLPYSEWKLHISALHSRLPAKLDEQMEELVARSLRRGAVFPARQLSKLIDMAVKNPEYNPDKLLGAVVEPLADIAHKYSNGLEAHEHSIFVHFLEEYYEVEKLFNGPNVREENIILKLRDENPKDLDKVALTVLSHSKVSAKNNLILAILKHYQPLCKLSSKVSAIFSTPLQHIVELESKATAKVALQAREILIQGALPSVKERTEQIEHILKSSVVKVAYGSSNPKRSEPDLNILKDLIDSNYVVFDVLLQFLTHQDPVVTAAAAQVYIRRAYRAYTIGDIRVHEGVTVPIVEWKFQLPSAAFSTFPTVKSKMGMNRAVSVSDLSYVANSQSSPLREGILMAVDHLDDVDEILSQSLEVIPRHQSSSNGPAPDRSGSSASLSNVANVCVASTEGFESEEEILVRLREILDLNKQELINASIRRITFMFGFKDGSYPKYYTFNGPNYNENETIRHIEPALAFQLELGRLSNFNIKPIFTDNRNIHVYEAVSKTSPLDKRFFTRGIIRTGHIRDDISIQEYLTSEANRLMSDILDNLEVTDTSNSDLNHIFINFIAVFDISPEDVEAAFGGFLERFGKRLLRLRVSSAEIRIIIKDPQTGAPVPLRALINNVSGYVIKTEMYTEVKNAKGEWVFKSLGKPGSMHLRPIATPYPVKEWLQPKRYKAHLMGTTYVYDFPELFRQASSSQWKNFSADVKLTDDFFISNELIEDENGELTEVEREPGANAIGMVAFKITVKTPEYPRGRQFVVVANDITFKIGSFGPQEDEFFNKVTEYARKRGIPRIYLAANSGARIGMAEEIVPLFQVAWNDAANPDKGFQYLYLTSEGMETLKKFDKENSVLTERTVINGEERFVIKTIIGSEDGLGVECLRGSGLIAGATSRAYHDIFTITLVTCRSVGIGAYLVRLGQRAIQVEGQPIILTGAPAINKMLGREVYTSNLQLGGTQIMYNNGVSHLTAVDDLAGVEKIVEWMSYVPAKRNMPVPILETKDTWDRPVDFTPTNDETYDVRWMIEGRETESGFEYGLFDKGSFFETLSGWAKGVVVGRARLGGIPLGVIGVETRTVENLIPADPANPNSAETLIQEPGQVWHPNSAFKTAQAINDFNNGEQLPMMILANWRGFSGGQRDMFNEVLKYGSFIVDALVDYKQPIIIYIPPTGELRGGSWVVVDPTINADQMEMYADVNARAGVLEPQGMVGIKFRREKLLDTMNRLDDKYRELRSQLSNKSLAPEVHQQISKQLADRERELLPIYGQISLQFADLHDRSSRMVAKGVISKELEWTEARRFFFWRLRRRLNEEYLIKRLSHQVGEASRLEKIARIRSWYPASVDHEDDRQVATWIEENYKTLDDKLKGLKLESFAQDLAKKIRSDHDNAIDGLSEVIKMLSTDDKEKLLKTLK

[15] = biological target: Human ACC2 (Homo sapiens, UniProt O00763); assay: In vitro ACC2 inhibition assay (ADP-Glo), human ACC2; type: biochemical; details: 5 nM ACC2, 20 μM ATP, 20 μM acetyl-CoA
Sequence of Human ACC2 (O00763 whole entry): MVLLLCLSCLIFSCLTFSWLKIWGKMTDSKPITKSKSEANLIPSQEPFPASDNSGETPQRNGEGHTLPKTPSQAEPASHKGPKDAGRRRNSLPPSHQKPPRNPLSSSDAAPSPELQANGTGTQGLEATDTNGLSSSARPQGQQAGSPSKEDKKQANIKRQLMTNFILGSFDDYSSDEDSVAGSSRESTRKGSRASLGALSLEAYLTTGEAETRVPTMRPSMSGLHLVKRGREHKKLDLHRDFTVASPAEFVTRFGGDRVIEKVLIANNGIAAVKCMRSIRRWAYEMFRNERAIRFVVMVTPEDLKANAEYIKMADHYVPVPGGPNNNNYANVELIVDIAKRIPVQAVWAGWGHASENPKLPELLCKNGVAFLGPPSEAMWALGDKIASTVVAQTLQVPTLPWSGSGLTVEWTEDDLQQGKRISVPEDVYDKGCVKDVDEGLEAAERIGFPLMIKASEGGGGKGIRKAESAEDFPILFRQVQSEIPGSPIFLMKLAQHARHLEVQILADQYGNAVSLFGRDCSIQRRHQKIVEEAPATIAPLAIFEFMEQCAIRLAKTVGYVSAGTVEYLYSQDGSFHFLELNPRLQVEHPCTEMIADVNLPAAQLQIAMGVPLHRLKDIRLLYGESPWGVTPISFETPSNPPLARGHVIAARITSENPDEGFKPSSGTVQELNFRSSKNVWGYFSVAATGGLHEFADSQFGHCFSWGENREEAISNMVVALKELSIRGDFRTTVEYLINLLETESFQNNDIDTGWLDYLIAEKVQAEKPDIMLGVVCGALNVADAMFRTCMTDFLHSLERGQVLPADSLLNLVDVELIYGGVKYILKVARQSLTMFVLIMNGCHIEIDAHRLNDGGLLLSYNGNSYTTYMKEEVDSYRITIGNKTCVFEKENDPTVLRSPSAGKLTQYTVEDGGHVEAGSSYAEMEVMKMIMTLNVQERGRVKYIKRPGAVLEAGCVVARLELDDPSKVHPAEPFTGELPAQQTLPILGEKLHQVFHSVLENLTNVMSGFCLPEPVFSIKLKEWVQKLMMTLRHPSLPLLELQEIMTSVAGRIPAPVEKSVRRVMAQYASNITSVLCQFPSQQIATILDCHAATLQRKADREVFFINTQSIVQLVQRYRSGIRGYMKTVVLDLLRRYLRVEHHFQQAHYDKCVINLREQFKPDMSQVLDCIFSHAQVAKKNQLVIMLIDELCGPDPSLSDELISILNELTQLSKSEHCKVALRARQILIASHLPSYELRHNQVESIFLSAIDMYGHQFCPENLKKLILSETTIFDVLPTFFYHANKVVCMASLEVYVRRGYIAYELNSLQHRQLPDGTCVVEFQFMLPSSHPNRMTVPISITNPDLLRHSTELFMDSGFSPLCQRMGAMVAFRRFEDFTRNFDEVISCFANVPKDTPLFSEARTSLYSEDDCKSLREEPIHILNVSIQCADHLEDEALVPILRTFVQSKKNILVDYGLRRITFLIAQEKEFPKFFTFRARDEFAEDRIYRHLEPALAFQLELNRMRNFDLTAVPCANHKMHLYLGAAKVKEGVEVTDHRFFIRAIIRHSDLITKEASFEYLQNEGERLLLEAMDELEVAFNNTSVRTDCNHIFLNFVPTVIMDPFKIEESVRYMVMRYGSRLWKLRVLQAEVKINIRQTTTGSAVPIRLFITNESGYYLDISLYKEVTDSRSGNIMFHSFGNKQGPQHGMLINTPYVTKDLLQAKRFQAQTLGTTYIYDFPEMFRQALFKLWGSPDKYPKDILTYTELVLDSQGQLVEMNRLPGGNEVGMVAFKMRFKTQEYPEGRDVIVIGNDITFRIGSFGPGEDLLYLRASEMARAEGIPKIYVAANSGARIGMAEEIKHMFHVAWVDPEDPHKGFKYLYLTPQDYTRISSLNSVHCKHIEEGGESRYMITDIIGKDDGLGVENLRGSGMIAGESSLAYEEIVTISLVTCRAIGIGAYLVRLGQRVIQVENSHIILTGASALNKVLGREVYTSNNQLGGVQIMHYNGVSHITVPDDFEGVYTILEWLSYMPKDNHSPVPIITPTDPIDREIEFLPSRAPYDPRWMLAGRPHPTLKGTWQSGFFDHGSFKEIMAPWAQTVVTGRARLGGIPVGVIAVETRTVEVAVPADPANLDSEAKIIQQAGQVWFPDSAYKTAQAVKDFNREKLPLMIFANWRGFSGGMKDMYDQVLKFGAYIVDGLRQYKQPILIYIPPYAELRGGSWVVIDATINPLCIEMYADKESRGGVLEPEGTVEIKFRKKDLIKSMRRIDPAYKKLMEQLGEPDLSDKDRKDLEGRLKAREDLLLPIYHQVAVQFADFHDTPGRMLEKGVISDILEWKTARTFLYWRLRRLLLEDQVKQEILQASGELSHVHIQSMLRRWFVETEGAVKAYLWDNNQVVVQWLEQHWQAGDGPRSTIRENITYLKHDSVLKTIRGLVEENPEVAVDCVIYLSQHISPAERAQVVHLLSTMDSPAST

[16] = compound concentration 50 ppm, foliar spray, evaluated 7 days after inoculation

Row | Structure (SMILES) | Barley Powdery Mildew Control at 10 ppm [1] | MIC [2] | MIC [3] | MIC [4] | IC90 ([5]; 48 hours) | IC90 ([6]; 48 hours) | IC90 ([7]; 48 hours) | IC90 ([8]; 48 hours) | IC90 ([9]; 48 hours) | IC90 ([10]; 48 hours) | IC90 ([11]; 48 hours) | IC90 ([12]; 48 hours) | pest or weed control at 50 ppm [13, 16] | IC50 [14] | IC50 [15] | other results
1 | COCCO[C@@H](Cn1c(=O)n([C@H]2CCN(C)C2=O)c(=O)c2c(C)c(-n3cccn3)sc21)c1cc(F)ccc1OC [Compound I-43, 1-((R)-2-(5-fluoro-2-methoxyphenyl)-2-(2-methoxy-ethoxy)ethyl)-5-methyl-3-((S)-1-methyl-2-oxopyrrolidin-3-yl)-6-(1H-pyrazol-1-yl)thieno[2,3-d]pyrimidine-2,4(1H,3H)-dione] | D (provided a compound having <25% control of barley powdery mildew) | 2.1 to 4 µg/mL (≈ 3.67 to 7 µM) | 2.1 to 4 µg/mL (≈ 3.67 to 7 µM) | 2.1 to 4 µg/mL (≈ 3.67 to 7 µM) | > 50 µg/mL | > 50 µg/mL | > 50 µg/mL | > 50 µg/mL | > 50 µg/mL | > 50 µg/mL | > 50 µg/mL | > 50 µg/mL | 70 to 84% | 10 to 100 nM |  | 
2 | COc1ccc(F)cc1[C@H](Cn1c(=O)n([C@@H]2CCCNC2=O)c(=O)c2c(C)c(-n3nccn3)sc21)OCCC(=O)O [Compound I-178, 3-((R)-1-(5-fluoro-2-methoxyphenyl)-2-(5-methyl-2,4-dioxo-3-((R)-2-oxopiperidin-3-yl)-6-(2H-1,2,3-triazol-2-yl)-3,4-dihydrothieno[2,3-d]pyrimidin-1(2H)-yl)ethoxy)propanoic acid] | D (provided a compound having <25% control of barley powdery mildew) |  |  |  | > 50 µg/mL | 10 µg/mL (≈ 17 µM) | > 50 µg/mL | 10 µg/mL (≈ 17 µM) | > 50 µg/mL | > 50 µg/mL | 2 µg/mL (≈ 3.41 µM) | > 50 µg/mL | 25 to 49% | 0.7 to 2 nM | 10 to 100 nM | 
3 | COc1ccc(F)cc1[C@H](Cn1c(=O)n([C@@H]2CCNC2=O)c(=O)c2c(C)c(-n3nccn3)sc21)OCCO [Compound I-81, 1-((R)-2-(5-fluoro-2-methoxyphenyl)-2-(2-hydroxy-ethoxy)ethyl)-5-methyl-3-((R)-2-oxopyrrolidin-3-yl)-6-(2H-1,2,3-triazol-2-yl)thieno[2,3-d]pyrimidine-2,4(1H,3H)-dione] | D (provided a compound having <25% control of barley powdery mildew) |  |  |  | 2 µg/mL (≈ 3.67 µM) | 10 µg/mL (≈ 18.4 µM) | 10 µg/mL (≈ 18.4 µM) | 2 µg/mL (≈ 3.67 µM) | 2 µg/mL (≈ 3.67 µM) | 10 µg/mL (≈ 18.4 µM) | 10 µg/mL (≈ 18.4 µM) | > 50 µg/mL | 25 to 49% | 0.7 to 2 nM | 2 to 10 nM | 
4 | COc1ccc(F)cc1[C@H](Cn1c(=O)n([C@@H]2CCNC2=O)c(=O)c2c(C)c(-n3nccn3)sc21)OCCC#N [Compound I-107, 3-((R)-1-(5-fluoro-2-methoxyphenyl)-2-(5-methyl-2,4-dioxo-3-((R)-2-oxopyrrolidin-3-yl)-6-(2H-1,2,3-triazol-2-yl)-3,4-dihydrothieno[2,3-d]pyrimidin-1(2H)-yl)ethoxy)propanenitrile] | C (provided a compound having from 25 to 49% control of barley powdery mildew) |  |  |  | 2 µg/mL (≈ 3.61 µM) | 10 µg/mL (≈ 18.1 µM) | 10 µg/mL (≈ 18.1 µM) | 2 µg/mL (≈ 3.61 µM) | 2 µg/mL (≈ 3.61 µM) | > 50 µg/mL | 2 µg/mL (≈ 3.61 µM) | > 50 µg/mL | 50 to 69% | 0.7 to 2 nM | 2 to 10 nM | 
5 | COCCO[C@@H](Cn1c(=O)n([C@H]2CCNC2=O)c(=O)c2c(C)c(-n3nccn3)sc21)c1cc(F)ccc1OC [Compound I-25, 1-((R)-2-(5-fluoro-2-methoxyphenyl)-2-(2-methoxy-ethoxy)ethyl)-5-methyl-3-((S)-2-oxopyrrolidin-3-yl)-6-(2H-1,2,3-triazol-2-yl)thieno[2,3-d]pyrimidine-2,4(1H,3H)-dione] | D (provided a compound having <25% control of barley powdery mildew) |  |  |  |  |  |  |  |  |  |  |  |  | 2 to 10 nM | 10 to 100 nM | IC90 ([5]; 48 h): > 50 µg/mL; IC90 ([6]; 48 h): > 50 µg/mL; IC90 ([7]; 48 h): > 50 µg/mL; IC90 ([8]; 48 h): 10 µg/mL (≈ 17.9 µM); IC90 ([9]; 48 h): > 50 µg/mL; IC90 ([10]; 48 h): > 50 µg/mL; IC90 ([11]; 48 h): > 50 µg/mL; IC90 ([12]; 48 h): > 50 µg/mL; pest or weed control at 50 ppm ([13]; foliar): 50 to 69%
6 | COCCO[C@@H](Cn1c(=O)n([C@H]2CCNC2=O)c(=O)c2c(C)c(-n3cccn3)sc21)c1cc(F)ccc1OC [Compound I-41, 1-((R)-2-(5-fluoro-2-methoxyphenyl)-2-(2-methoxy-ethoxy)ethyl)-5-methyl-3-((S)-2-oxopyrrolidin-3-yl)-6-(I H-pyrazol-1-yl)thieno[2,3-d]pyrimidine-2,4(1H,3H)-dione] | D (provided a compound having <25% control of barley powdery mildew) | 2.1 to 4 µg/mL (≈ 3.77 to 7.17 µM) | 2.1 to 4 µg/mL (≈ 3.77 to 7.17 µM) | 2.1 to 4 µg/mL (≈ 3.77 to 7.17 µM) | > 50 µg/mL | > 50 µg/mL | > 50 µg/mL | > 50 µg/mL | > 50 µg/mL | > 50 µg/mL | > 50 µg/mL | > 50 µg/mL | 25 to 49% | 10 to 100 nM |  | 
